Measured values: publication PMC11378297, “Discovery and Profiling of New Multimodal Phenylglycinamide Derivatives as Potent Antiseizure and Antinociceptive Drug Candidates” (ACS Chemical Neuroscience, 2024)

Assays:
CYP3A4 = target: T1, CYP3A4 (Homo sapiens, UniProt P08684); experiment: CYP3A4 P450-Glo assay; assay type: in vitro ADME; conditions: 10 μM
T1 construct: purchased Promega (Madison, WI, USA)
Procedure: The inhibition effect of enantiomers on CYP2C9 was also determined, but only at the highest concentrations (Figure 10C). In summary, the potential for DDIs of the tested enantiomers in comparison to the reference CYP inhibitors was estimated as very low.
Figure 10 Influence of (R)-31, (R)-32, and (R)-33 on: CYP3A4 activity (A) and the reference inhibitor ketoconazole (KE), CYP2D6 activity (B) and the reference inhibitor quinidine (QD), CYP2C9 activity (C) and the reference inhibitor sulfaphenazole (SE). The results are presented as means + SD. Statistical significance was evaluated by one-way ANOVA, followed by Bonferroni’s multiple comparison post hoc test (Graph Pad Prism 8.0.1 software) *p < 0.05, **p < 0.01, ***p < 0.001, ****p < 0.0001.
All assays and protocols used for the evaluation of compounds ADME-Tox parameters were described previously.[35]−[38],[95]−[98] […] The vitality of the cells was assessed using the CellTiter 96 AQueous Non-Radioactive Cell Proliferation Assay (Promega, Madison, WI, USA), following a 48 h incubation period with either the reference medication, doxorubicin (DOX), or serial dilutions of the investigated compounds. Using an EnSpire PerkinElmer microplate reader (Waltham, MA, USA), the luminescent signal and absorbances (measured at 490 nm) in DDIs and safety assays were determined. […]

[1] = system: glutamate and GABA concentrations in brain; experiment: glutamate and GABA concentrations in hippocampus and cortex of PTZ-kindled mice; assay type: in vivo, mouse
Excerpt: After behavioral tests (FST, PTZ-induced kindling), we determined the changes in glutamate and GABA concentrations in the hippocampus and cortex. Since exposure to the FST can evoke various neurochemical alterations, two additional groups were employed in this experiment, i.e., control nonkindled mice that were exposed to the FST and naïve mice. No marked differences in both glutamate and GABA concentrations in the hippocampus were observed (Figure 5A). […] We found a significant increase in glutamate concentration in the cortex of mice subjected to the FST (p < 0.05 vs naive mice). […] Given that seizures are typically accompanied by elevated extracellular glutamate levels (an excitatory neurotransmitter), a decreased glutamate concentration in the cortex of kindled animals may appear to be an unexpected outcome. It should be highlighted, however, that the concentrations of glutamate and GABA in tissue homogenates rather than dialysate were measured in brain samples acquired 24 h following the previous PTZ dose, which may have an impact on the outcomes. On the other hand, decreased glutamate levels could be caused by the up-regulation of glutamate transporters, as the expression of glutamate transporters can increase following seizures.[48] For example, an increased expression of hippocampal GLT-1 was observed 24 h after kainic acid-induced status epilepticus in mice and PTZ-induced kindling in rats.[49] Moreover, similar to our findings, Szyndler et al.([50]) found decreased glutamate concentrations, with no changes in GABA concentrations, in homogenates of the hippocampus, striatum, and prefrontal cortex of PTZ-kindled rats.
Figure 5 Changes in glutamate and GABA concentrations in the hippocampus (A) and cortex (B). Data are shown as means + SD (n = 9–14 animals). Statistical significance was evaluated by one-way ANOVA followed by Tukey’s post hoc test: *p < 0.05, **p < 0.01, ***p < 0.001 (GraphPad Prism 8.4.3).
GABA and glutamate concentrations were determined using liquid chromatography tandem mass spectrometry (LC-MS/MS) in the mouse prefrontal cortex and hippocampus. Toronto Research Chemicals Inc. was the source of the standards for both analytes (Toronto, ON, Canada). GABA and glutamate stock standard solutions were made in methanol and deionized water, respectively, and kept cold at 4 °C. The stock solutions were suitably diluted to create a range of solution combinations with the appropriate concentrations. Prior to analysis, a hand-held pestle and glass tube homogenizer (Potter–Elvehjem PTFE pestle and glass tube, Sigma-Aldrich, St. Louis, MO, USA) were used to homogenize mouse brains in distilled water at a ratio of 50 μL/mg. Following a 10 min centrifugation at 8000g for 10 min at 4 °C, homogenates were diluted 10 times with 0.1% formic acid in MeCN from the supernatant. Samples (10 μL) were deproteinized with 80 μL of 0.1% formic acid in MeCN by shaking for 10 min (IKA Vibrax VXR, IKA Werke GmbH & Co. KG, Staufen im Breisgau, Germany) and centrifuged for 5 min at the speed of 8000g (Eppendorf miniSpin centrifuge) after isotope-labeled GABA-d6 and glutamate-d5 (Toronto Research Chemicals Inc., Toronto, ON, Canada) were added as internal standards (10 μL at the concentration of 500 ng/mL). The autosampler vials were filled with the acquired supernatants. […]

T1 sequence (P08684 whole entry): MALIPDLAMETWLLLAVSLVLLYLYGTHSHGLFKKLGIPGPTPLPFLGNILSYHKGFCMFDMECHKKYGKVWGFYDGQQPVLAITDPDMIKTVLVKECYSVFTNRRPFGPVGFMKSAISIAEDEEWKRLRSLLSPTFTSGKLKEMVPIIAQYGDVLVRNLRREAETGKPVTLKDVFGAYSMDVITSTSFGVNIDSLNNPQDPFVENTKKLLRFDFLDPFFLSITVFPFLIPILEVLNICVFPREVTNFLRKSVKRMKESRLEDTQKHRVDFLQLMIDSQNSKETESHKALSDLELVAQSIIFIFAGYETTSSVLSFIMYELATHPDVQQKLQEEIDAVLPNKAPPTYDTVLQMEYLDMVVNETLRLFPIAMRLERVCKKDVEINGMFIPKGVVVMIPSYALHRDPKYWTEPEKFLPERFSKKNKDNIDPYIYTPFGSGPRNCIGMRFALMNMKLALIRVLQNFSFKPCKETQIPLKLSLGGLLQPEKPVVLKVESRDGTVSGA

CC(=O)N[C@@H](C(=O)N1CCN(c2cccc(C(F)(F)F)c2)CC1)c1ccccc1 [(R)-31, (R)-N-(2-Oxo-1-phenyl-2-(4-(3-(trifluoromethyl)phenyl)piperazin-1-yl)ethyl)acetamide]
effect on CYP3A4 activity (CYP3A4): significantly inhibited

CC(=O)N[C@@H](C(=O)N1CCN(c2cccc(OC(F)(F)F)c2)CC1)c1ccccc1 [(R)-32, (R)-N-(2-Oxo-1-phenyl-2-(4-(3-(trifluoromethoxy)phenyl)piperazin-1-yl)ethyl)acetamide]
GABA concentration in the cortex ([1]; 80 mg/kg, p < 0.001 vs PTZ-kindled control group): significantly decreased
glutamate concentration in the cortex (PTZ-kindling-induced decrease) ([1]; 80 mg/kg, p < 0.01 vs PTZ-kindled control group): reversed this effect
glutamate concentration in the hippocampus ([1]; vs nonkindled FST control group): slight decrease
